Reference: patent US12116362B2, “Monocyclic compounds useful as GPR120 modulators” (Valo Health, Inc., priority 2016, dated 2024)

Target: T1, human GPR120 (Homo sapiens, UniProt Q5NUL3)
T1 construct: host or cells: CHO-K1
Test: GPR120 β-Arrestin Recruitment Assay (PathHunter, CHO-K1 cells)
Assay type: cell-based
Details: for activation at 10 µM: CHO-K1, read-out: percent activation at a single concentration (printed in the β-Arr pEC50 column); for EC50: pEC50=−log(EC50) from curve fit, CHO-K1 cells, 90 min incubation, read-out: β-Arr pEC50 (converted)
From the text: This in vitro assay tests compounds' ability to activate intracellular signaling via 3-Arrestin recruitment to heterologously expressed human GPR120. This functional cellular assay utilizes enzyme fragment complementation with β-galactosidlase (β-gal) as a functional reporter (DiscoveRx PathlHunter® β-Arrestin assay platform). The human (GPR120 receptor (GenBank accession Number NM_181745) was fused in frame with the small enzyme fragment ProLink™ and co-expressed in CHO-K1 cells with a fusion protein of β-Arrestin 2 and the larger, N-terminal deletion mutant of β-gal. Activation by a GPR120 agonist stimulates binding of β-arrestin to the ProLink-tagged GPCR and forces complementation of the two enzyme fragments, resulting in the formation of an active β-gal enzyme. This interaction leads to an increase in enzyme activity that can be measured using chemiluminescent PathHunter® Detection Reagents.
One day prior to the assay, cells were seeded in a total volume of 20 μl of growth medium into white walled 384-well microplates and incubated at 37° C./5% CO2 overnight. On the day of the assay, growth medium was removed and 20 μl assay buffer (HBSS+10 mM HEPES+0.1% heat-inactivated BSA) were added to each well.
Test compounds were dissolved in 100% DMSO to a concentration of 10 mM to provide stock solutions. Serial dilutions were performed from stock solutions into assay buffer to obtain intermediate concentrations of 5-fold higher than the concentrations to be tested. 5 μl of the 5× compound solutions were added to the cells and the assay plates were incubated at 37° C. for 90 minutes. The final concentration of compounds tested in the assay ranged from 1.5 nM to 100 μM. Following incubation, 12.5 μl of PathHunter® detection reagent were added to each well, and plates were incubated at room temperature for 60 minutes. Chemiluminescence was read using an EnVision plate reader (PerkinElmer), raw data were expressed as relative light units (RLU).
To determine agonist potencies (EC50 values), non-linear least-squares curve fits of the raw data (RLU) were performed in the GraphPad Prism software package, using the 4-parameter model with variable Hill Slope:
Reported below in Table 1 are pEC50 values (pEC50=−log(EC50) from curve fit) for compounds of Formula I in this assay, β-Arr pEC50 Alternatively, percent activation at a single concentration is reported.

T1 sequence (Q5NUL3 1-377 isoform Q5NUL3-1): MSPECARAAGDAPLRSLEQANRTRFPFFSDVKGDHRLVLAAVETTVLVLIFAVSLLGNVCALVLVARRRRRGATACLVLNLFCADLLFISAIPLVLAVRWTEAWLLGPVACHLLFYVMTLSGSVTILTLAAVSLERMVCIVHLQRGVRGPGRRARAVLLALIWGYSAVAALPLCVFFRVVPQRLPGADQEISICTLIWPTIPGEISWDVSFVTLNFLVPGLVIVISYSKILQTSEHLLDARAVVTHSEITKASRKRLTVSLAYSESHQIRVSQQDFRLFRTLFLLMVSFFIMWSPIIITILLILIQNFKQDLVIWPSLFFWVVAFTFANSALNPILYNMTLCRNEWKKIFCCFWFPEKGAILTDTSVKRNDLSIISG
T1 sequence (P32121 whole entry partner): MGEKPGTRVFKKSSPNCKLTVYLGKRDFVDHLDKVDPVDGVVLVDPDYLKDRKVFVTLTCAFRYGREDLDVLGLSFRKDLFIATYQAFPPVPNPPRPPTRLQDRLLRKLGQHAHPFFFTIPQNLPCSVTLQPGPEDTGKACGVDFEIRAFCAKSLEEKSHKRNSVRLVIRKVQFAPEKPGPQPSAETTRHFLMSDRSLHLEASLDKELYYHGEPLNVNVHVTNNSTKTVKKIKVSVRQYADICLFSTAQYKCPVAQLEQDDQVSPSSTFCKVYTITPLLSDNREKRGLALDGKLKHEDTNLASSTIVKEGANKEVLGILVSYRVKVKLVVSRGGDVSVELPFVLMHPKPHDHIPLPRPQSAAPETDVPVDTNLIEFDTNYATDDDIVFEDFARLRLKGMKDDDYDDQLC

Row | activation at 10 µM | EC50 | SMILES
1 |  | > 31.6 µM | O=S1(=O)c2cccc(Cl)c2CN1c1ccnc(Oc2cccnc2)n1 [Compound 3]
2 |  | > 31.6 µM | O=S1(=O)c2cc(Cl)ccc2CN1c1ccnc(Oc2cccnc2)n1 [Compound 4]
3 |  | > 10 µM | COc1ccc2c(c1Cl)S(=O)(=O)N(c1ccnc(Oc3cccnc3)n1)C2 [Compound 5]
4 |  | > 10 µM | CC1(C)c2ccccc2S(=O)(=O)N1c1ccnc(Oc2cccnc2)n1 [Compound 6]
5 |  | 12.6 µM | O=S1(=O)c2ccccc2CN1c1ccnc(OC2CC(F)(F)C2)n1 [Compound 7]
6 |  | 12.6 µM | CC1c2ccccc2S(=O)(=O)N1c1ccnc(Oc2cccnc2)n1 (stereo not drawn) [Compound 8]
7 |  | > 31.6 µM | O=C1c2cccnc2CN1c1ccnc(Oc2cccnc2)n1 [Compound 9]
8 |  | > 31.6 µM | O=C1c2ncccc2CN1c1ccnc(Oc2cccnc2)n1 [Compound 10]
9 |  | > 10 µM | COc1ccc2c(c1)C(=O)N(c1ccnc(Oc3cccnc3)n1)C2 [Compound 11]
10 |  | > 31.6 µM | COc1ccc2c(c1)CN(c1ccnc(Oc3cccnc3)n1)C2=O [Compound 12]
11 | 9% |  | c1cncc(Oc2nccc(N3Cc4ccccc4C3)n2)c1 [Compound 13]
12 | 8% |  | c1cncc(Oc2ccnc(N3Cc4ccccc4C3)n2)c1 [Compound 14]
13 | 3% |  | O=S1(=O)c2ccccc2CN1c1ccnc(Oc2ccncc2)n1 [Compound 15]
14 | 4% |  | Cc1ncccc1Oc1nccc(N2Cc3ccccc3S2(=O)=O)n1 [Compound 17]
15 |  | > 10 µM | Cc1ccc(Oc2nccc(N3Cc4ccccc4S3(=O)=O)n2)cn1 [Compound 18]
16 |  | 3.16 µM | CN(C)c1cccc(Oc2nccc(N3Cc4ccccc4S3(=O)=O)n2)c1 [Compound 23]
17 | 1% |  | CC(=O)Nc1cccc(Oc2nccc(N3Cc4ccccc4S3(=O)=O)n2)c1 [Compound 24]
18 | 16% |  | O=S1(=O)c2ccccc2CN1c1ccnc(Oc2cncnc2)n1 [Compound 25]
19 |  | 12.6 µM | O=S1(=O)c2ccccc2CN1c1ccnc(Oc2cnc3ccccc3c2)n1 [Compound 26]
20 | 9% |  | O=S1(=O)c2ccccc2CN1c1ccnc(Oc2ccnc3ccccc23)n1 [Compound 27]
21 |  | 12.6 µM | O=C1c2ccccc2CN1c1ccnc(Oc2cccnc2)n1 [Compound 28]
22 |  | 15.8 µM | O=S1(=O)c2ccccc2CN1c1ccnc(-n2ccc3ccccc32)n1 [Compound 29]
23 | 17% |  | O=S1(=O)c2ccccc2CN1c1ccnc(-n2ccc3ccncc32)n1 [Compound 30]
24 | 11% |  | O=S1(=O)c2ccccc2CN1c1ccnc(-n2cnc3ccccc32)n1 [Compound 31]
25 |  | 25.1 µM | O=S1(=O)c2ccccc2CN1c1ccnc(Oc2cncc3ccccc23)n1 [Compound 32]
26 |  | 15.8 µM | O=S1(=O)c2ccccc2CN1c1ccnc(Oc2cc(Cl)cc(Cl)c2)n1 [Compound 38]

Row | activation at 10 µM | EC50 | SMILES
27 |  | > 10 µM | COc1cccc(Oc2nccc(N3Cc4ccccc4S3(=O)=O)n2)c1 [Compound 39]
28 |  | > 10 µM | N#Cc1ccc(Oc2nccc(N3Cc4ccccc4S3(=O)=O)n2)cc1 [Compound 40]
29 |  | > 31.6 µM | O=S1(=O)c2ccccc2CN1c1ccnc(Oc2ccc(Oc3ccccc3)cc2)n1 [Compound 43]
30 |  | 5.01 µM | Cc1cc(Cl)cc(Oc2nccc(N3Cc4ccccc4S3(=O)=O)n2)c1 [Compound 46]
31 |  | 6.31 µM | O=S1(=O)c2ccccc2CN1c1ccnc(Oc2ccc(C(F)(F)F)cc2)n1 [Compound 47]
32 |  | > 10 µM | O=S1(=O)c2ccccc2CN1c1ccnc(Oc2ccc(-n3cncn3)cc2)n1 [Compound 48]
33 |  | 2.51 µM | O=S1(=O)c2ccccc2CN1c1ccnc(Oc2ccc(OC(F)(F)F)cc2)n1 [Compound 49]
34 |  | 12.6 µM | O=S1(=O)c2ccccc2CN1c1ccnc(Oc2cncc(Br)c2)n1 [Compound 52]
35 |  | > 10 µM | Cc1cc(C)c(Oc2nccc(N3Cc4ccccc4S3(=O)=O)n2)cn1 [Compound 53]
36 |  | > 10 µM | O=S1(=O)c2ccccc2CN1c1ccnc(Oc2ccc(Cl)nc2)n1 [Compound 54]
37 |  | > 10 µM | N#Cc1ccc(Oc2nccc(N3Cc4ccccc4S3(=O)=O)n2)cn1 [Compound 55]
38 |  | 1 µM | O=S1(=O)c2ccccc2CN1c1ccnc(Oc2ccc(OC(F)(F)F)cc2Cl)n1 [Compound 57]
39 |  | > 10 µM | O=S1(=O)c2ccccc2CN1c1ccnc(OC2CCNCC2)n1 [Compound 62]
40 |  | > 10 µM | O=S1(=O)c2ccccc2CN1c1ccnc(OC2CCOCC2)n1 [Compound 64]
41 |  | > 10 µM | O=S1(=O)c2ccccc2CN1c1ccnc(OC2CCOC2)n1 (stereo not drawn) [Compound 65]
42 |  | > 10 µM | CC(=O)N1CCCC(Oc2nccc(N3Cc4ccccc4S3(=O)=O)n2)C1 (stereo not drawn) [Compound 66]
43 |  | 2.51 µM | O=S1(=O)c2ccccc2CN1c1ccnc(OCC2CCCCC2)n1 [Compound 68]
44 |  | 3.98 µM | O=S1(=O)c2ccccc2CN1c1ccnc(OCC2CCC2)n1 [Compound 69]
45 |  | 15.8 µM | O=S1(=O)c2ccccc2CN1c1ccnc(OCc2ccccc2)n1 [Compound 70]
46 | 1% |  | O=S1(=O)c2ccccc2CN1c1ccnc(OCc2cccnc2)n1 [Compound 71]
47 |  | > 10 µM | O=S1(=O)c2ccccc2CN1c1ccnc(OCc2ccncc2)n1 [Compound 73]
48 |  | > 31.6 µM | CN1CCC(Oc2nccc(N3Cc4ccccc4S3(=O)=O)n2)CC1 [Compound 74]
49 |  | > 31.6 µM | NC(=O)COc1nccc(N2Cc3ccccc3S2(=O)=O)n1 [Compound 75]
50 |  | > 31.6 µM | O=C(COc1nccc(N2Cc3ccccc3S2(=O)=O)n1)Nc1ccccc1 [Compound 76]
51 |  | 6.31 µM | N#Cc1cc(N2Cc3ccccc3S2(=O)=O)nc(Oc2cccnc2)n1 [Compound 81]
52 |  | > 10 µM | CC(C)c1cc(N2Cc3ccccc3S2(=O)=O)nc(Oc2cccnc2)n1 [Compound 84]

Row | activation at 10 µM | EC50 | SMILES
53 |  | > 31.6 µM | COc1ccc(-c2cc(N3Cc4ccccc4S3(=O)=O)nc(Oc3cccnc3)n2)cc1 [Compound 85]
54 |  | > 10 µM | CNC(=O)c1cc(N2Cc3ccccc3S2(=O)=O)nc(Oc2cccnc2)n1 [Compound 88]
55 |  | 12.6 µM | COc1ccc2c(c1)S(=O)(=O)N(c1nccc(Oc3cccnc3)n1)C2 [Compound 90]
56 |  | 3.98 µM | Cc1cc(N2Cc3ccccc3S2(=O)=O)nc(OC2CC(F)(F)C2)n1 [Compound 91]
57 |  | 3.16 µM | Cc1cc(OC2CC(F)(F)C2)nc(N2Cc3ccccc3S2(=O)=O)n1 [Compound 92]
58 |  | > 10 µM | O=S1(=O)c2ccccc2CN1c1nccc(OC2CC(F)(F)C2)n1 [Compound 94]
59 |  | 0.398 µM | COc1cc(N2Cc3ccccc3S2(=O)=O)nc(Oc2ccc(Cl)cc2)n1 [Compound 95]
60 |  | 0.158 µM | COc1cc(N2Cc3ccccc3S2(=O)=O)nc(Oc2ccccc2)n1 [Compound 100]
61 |  | 0.794 µM | COc1cc(Oc2ccccc2)nc(N2Cc3ccccc3S2(=O)=O)n1 [Compound 102]
62 |  | 2 µM | O=S1(=O)c2ccccc2CN1c1cc(C(F)(F)F)nc(Oc2ccc(F)cc2)n1 [Compound 103]
63 |  | 3.98 µM | Cc1cc(Oc2ccc(F)cc2)nc(N2Cc3ccccc3S2(=O)=O)n1 [Compound 104]
64 |  | 2.51 µM | Cc1cc(Oc2ccccc2)nc(N2Cc3ccccc3S2(=O)=O)n1 [Compound 105]
65 |  | 0.794 µM | Cc1cc(N2Cc3ccccc3S2(=O)=O)nc(Oc2ccccc2)n1 [Compound 107]
66 |  | > 31.6 µM | CN1CCN(c2cc(N3Cc4ccccc4S3(=O)=O)nc(Oc3cccnc3)n2)CC1 [Compound 108]
67 |  | > 31.6 µM | CS(=O)(=O)N1CC(Oc2nccc(N3Cc4ccccc4S3(=O)=O)n2)C1 [Compound 109]
68 |  | > 31.6 µM | CC(=O)N1CC(Oc2nccc(N3Cc4ccccc4S3(=O)=O)n2)C1 [Compound 110]
69 |  | > 10 µM | CC(=O)N1CCC(Oc2nccc(N3Cc4ccccc4S3(=O)=O)n2)CC1 [Compound 111]
70 |  | > 31.6 µM | CC(=O)N1CCC(Oc2nccc(N3Cc4ccccc4S3(=O)=O)n2)C1 (stereo not drawn) [Compound 112]
71 |  | 12.6 µM | O=C1c2cccc(Br)c2CN1c1ccnc(Oc2cccnc2)n1 [Compound 113]
72 |  | 6.31 µM | Cc1cc(Oc2cccnc2)nc(N2Cc3ccccc3S2(=O)=O)n1 [Compound 115]
73 |  | 39.8 µM | COc1ccc2c(c1)CN(c1nccc(Oc3cccnc3)n1)S2(=O)=O [Compound 116]
74 |  | > 10 µM | O=C1c2ccccc2CN1c1nccc(Oc2cccnc2)n1 [Compound 117]
75 |  | 1 µM | Cc1cccc2c1CN(c1nccc(Oc3cccnc3)n1)C2 [Compound 118]
76 |  | > 31.6 µM | O=C1Cc2ccccc2N1c1nccc(Oc2cccnc2)n1 [Compound 120]
77 |  | > 31.6 µM | O=S1(=O)c2ccccc2CN1c1cccc(Oc2ccccc2Cl)n1 [Compound 124]

Row | SMILES | activation at 10 µM | EC50
78 | CC1(C)c2ccccc2CN1c1ccnc(Oc2cccnc2)n1 [Compound 2] | 18% | 
